± gives the standard deviation of the averaged measurements.
Key:
CAMPTOTHECIN [1] = compound: T1, CC[C@@]1(O)C(=O)OCc2c1cc1n(c2=O)Cc2cc3ccccc3nc2-1 [CAMPTOTHECIN]; assay: surviving fraction relative to DMSO-only wells; higher = less growth inhibition; conditions: exposure time: 5 days
Summary of the method: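 Inhibitors were tested at 0.5, 1, 5, 10, 50, 100, 500 and 1000 nM, applied continuously for five days beginning 24 hours after log-phase tumour cells were seeded at 250–500 per well in 384-well plates. CellTiter-Glo luminescence served as the viability measure, expressed as surviving fraction against the median of DMSO-only wells. Each line, screened three times, was kept only with replicate Pearson r >0.7 and median Z' >0.3.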

CELECOXIB = compound: Cc1ccc(-c2cc(C(F)(F)F)nn2-c2ccc(S(N)(=O)=O)cc2)cc1 [CELECOXIB]; assay: area under dose-response curve of surviving fraction (unscaled, Aref=0) (surviving fraction x log10(nM)); higher = more resistant; conditions: exposure time: 5 days; dose range 0.5-1000 nM
Summary of the method: (§1)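 Surviving fractions were fitted by 3-parameter logistic regression in the drc R package to give dose-response survival curves. They came from tumour cell lines treated for five days with eight inhibitor concentrations from 0.5 to 1000 nM and read by CellTiter-Glo luminescence against DMSO-only wells. The area under the curve is the unscaled activity area. It was calculated over log10 dose with Aref = 0.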

CAMPTOTHECIN [2] = compound: T1, CAMPTOTHECIN; assay: as above; conditions: exposure time: 5 days; dose range 0.5-1000 nM
Summary of the method: as §1

YM155 = compound: COCC[n+]1c2c(n(Cc3cnccn3)c1C)C(=O)c1ccccc1C2=O [YM155]; assay: as above; conditions: exposure time: 5 days; dose range 0.5-1000 nM
Summary of the method: as §1

CARBOPLATIN = compound: O=C(O)C1(C(=O)O)CCC1.[NH2-].[NH2-].[Pt+2] [CARBOPLATIN]; assay: as above; conditions: exposure time: 5 days; dose range 0.5-1000 nM
Summary of the method: as §1

[3] = compound: CC(=O)NCC(=O)N1[C@@H]2CC[C@H]1c1ccc(Nc3ncc(C(F)(F)F)c(NC4CCC4)n3)cc12; assay: as above; conditions: exposure time: 5 days; dose range 0.5-1000 nM
Summary of the method: as §1

PACLITAXEL = compound: CC(=O)O[C@H]1C(=O)[C@@]2(C)[C@H]([C@H](OC(=O)c3ccccc3)[C@]3(O)C[C@H](OC(=O)[C@H](O)[C@@H](NC(=O)c4ccccc4)c4ccccc4)C(C)=C1C3(C)C)[C@]1(OC(C)=O)CO[C@@H]1C[C@@H]2O [PACLITAXEL]; assay: as above; conditions: exposure time: 5 days; dose range 0.5-1000 nM
Summary of the method: as §1

[4] = compound: CC(=O)c1c(C)c2cnc(Nc3ccc(N4CCNCC4)cn3)nc2n(C2CCCC2)c1=O; assay: as above; conditions: exposure time: 5 days; dose range 0.5-1000 nM
Summary of the method: as §1

OSI-906 = compound: C[C@]1(O)C[C@@H](c2nc(-c3ccc4ccc(-c5ccccc5)nc4c3)c3c(N)nccn32)C1 [OSI-906]; assay: as above; conditions: exposure time: 5 days; dose range 0.5-1000 nM
Summary of the method: as §1

GEFITINIB = compound: COc1cc2ncnc(Nc3ccc(F)c(Cl)c3)c2cc1OCCCN1CCOCC1 [GEFITINIB]; assay: as above; conditions: exposure time: 5 days; dose range 0.5-1000 nM
Summary of the method: as §1

Test System | surviving fraction (CAMPTOTHECIN [1]; 0.5 nM) | surviving fraction (CAMPTOTHECIN [1]; 1 nM) | surviving fraction (CAMPTOTHECIN [1]; 5 nM) | surviving fraction (CAMPTOTHECIN [1]; 10 nM) | surviving fraction (CAMPTOTHECIN [1]; 50 nM) | surviving fraction (CAMPTOTHECIN [1]; 100 nM) | surviving fraction (CAMPTOTHECIN [1]; 500 nM) | surviving fraction (CAMPTOTHECIN [1]; 1000 nM) | area under dose-response curve (CELECOXIB) | area under dose-response curve (CAMPTOTHECIN [2]) | area under dose-response curve (YM155) | area under dose-response curve (CARBOPLATIN) | area under dose-response curve [3] | area under dose-response curve (PACLITAXEL) | area under dose-response curve [4] | area under dose-response curve (OSI-906) | area under dose-response curve (GEFITINIB)
CME SYNOVIAL | 0.013 ± 0.0036 | 0.14 ± 0.019 | 0.0177 ± 0.00058 | 0.0897 ± 0.018 | 0.028 ± 0.0027 | 0.152 ± 0.017 | 0.1177 ± 0.00058 | 0.229 ± 0.0051 | 4.61 | 0.288 | 1.3 | 4.52 | 2.49 | 1.47 | 4.13 | – | –
SNU475 LIVER | 0.34 ± 0.0091 | 0.828 ± 0.034 | 0.635 ± 0.0066 | 0.482 ± 0.023 | 0.162 ± 0.0079 | 0.194 ± 0.012 | 0.103 ± 0.0081 | 0.104 ± 0.0085 | 3.49 | 1.18 | 1.91 | 3.44 | 2.85 | 0.893 | 3.4 | 3.01 | –
YAMATO SYNOVIAL | 0.118 ± 0.0092 | 0.562 ± 0.092 | 0.466 ± 0.035 | 0.479 ± 0.033 | 0.0957 ± 0.0085 | 0.247 ± 0.026 | 0.16 ± 0.0095 | 0.284 ± 0.028 | 4.62 | 0.991 | 1.2 | 4.26 | 2.87 | 1.69 | 3.92 | – | 4.25
MDAMB157 BREAST | 0.857 ± 0.063 | 0.911 ± 0.034 | 0.674 ± 0.061 | 0.319 ± 0.058 | 0.26 ± 0.0076 | 0.247 ± 0.019 | 0.135 ± 0.0051 | 0.118 ± 0.014 | – | 1.4 | 1.53 | – | 2.36 | 0.654 | 3.21 | 2.98 | 3.2
VCAP PROSTATE | 0.879 ± 0.094 | 0.902 ± 0.052 | 0.801 ± 0.1 | 0.508 ± 0.034 | 0.412 ± 0.028 | 0.4023 ± 0.0023 | 0.219 ± 0.034 | 0.158 ± 0.069 | – | 1.76 | 0.945 | 3.55 | 2.52 | 0.687 | – | 2.78 | 3.75
SCC003 HEADNECK | 0.817 ± 0.034 | 0.868 ± 0.085 | 0.849 ± 0.065 | 0.786 ± 0.094 | 0.361 ± 0.052 | 0.218 ± 0.029 | 0.07 ± 0.0061 | 0.054 ± 0.004 | 3.59 | 1.77 | 1.38 | – | 2.69 | 1.13 | 3.56 | 3.08 | 2.89
RDES SOFT TISSUE | 0.776 ± 0.076 | 0.735 ± 0.1 | 0.027 ± 0.001 | 0.0233 ± 0.00058 | 0.0347 ± 0.0011 | 0.0297 ± 0.0015 | 0.0263 ± 0.0011 | 0.0357 ± 0.0011 | 3.85 | 0.518 | 1.4 | 3.72 | 2.44 | 1.03 | – | 2.76 | 3.69
ASKA SYNOVIAL | 0.303 ± 0.029 | 0.641 ± 0.065 | 0.349 ± 0.032 | 0.242 ± 0.025 | 0.118 ± 0.005 | 0.21 ± 0.0046 | 0.157 ± 0.0082 | 0.231 ± 0.0075 | 3.87 | 0.904 | 1.57 | 3.72 | 2.15 | 0.983 | – | 3.41 | 3.71

— the supplement of paper PMC6045584
